Measured values published in patent US6399629B1, “Efflux pump inhibitors” (priority 1998, dated 2002).

Tested on: Pseudomonas aeruginosa PAM1001
Assay: checkerboard assay (broth microdilution): levofloxacin MIC in presence of efflux pump inhibitor
Format: cell-based
Protocol: For compounds labeled with the prefix ‘M’, potentiation effect is observed by the reduction of the minimum inhibitory concentration of levofloxacin in the presence of the experimental efflux pump inhibitor. The activity of efflux pump inhibitors (EPI) in combination with fluoroquinolones, such as levofloxacin, is assessed by the checkerboard assay (Antimicrobial Combinations. In Antibiotics in Laboratory Medicine, Ed. Victor Lorian, M.D., Fourth edition, 1996, pp 333-338) using broth microdilution method performed as recommended by the National Committee for Clinical Laboratory Standards (1997). Methods for Dilution of Antimicrobial Susceptibility Tests for Bacteria That Grow Aerobically—Fourth Edition; Approved Standard. NCCLS Document M7-A4, Vol 17 No.2). The test organism used is Pseudomonas aeruginosa PAM1001. […] The compounds tabulated below are representative of the described invention.
In these assays, multiple dilutions of two drugs, namely the EPI and levofloxacin, are being tested, alone and in combination, at concentrations equal to, above and below their respective minimal inhibitory concentrations (MICs). In the case of EPI, most of these compounds are devoid of intrinsic antimicrobial activity and are tested up to the maximum concentration of 40 μg/mL. The MIC of levofloxacin against P. aeruginosa PAM1001 is 4 μg/mL.
The EPI tested are readily soluble in water and stock solutions are prepared at a final concentration of 2 mg/mL. Stock solutions are further diluted, according to the needs of a particular assay, in Mueller Hinton Broth (MHB). Stock solution can be stored at −80° C. Quinolones are solubilized according to the instructions of the manufacturers, at a concentration of 1 mg/mL. They are then further diluted in MHB. Stock solution can be stored at −80° C.
The checkerboard assay is performed in microtiter plates. Levofloxacin is diluted in the x axis, each column containing a single concentration of levofloxacin. The EPI is diluted in the y axis, each row containing an equal concentration of EPI. The result of these manipulations is that each well of the microtiter plate contains a unique combination of concentrations of the two agents. Each EPI are tested independently.
The assay is performed in MHB with a final bacterial inoculum of 5×10^5 CFU/mL (from an early-log phase culture). Microtiter plates are incubated during 20 h at 35° C. and are read using a microtiter plate reader (Molecular Devices) at 650 nm as well as visual observation using a microtiterplate reading mirror.

Compound | Levofloxacin MIC Against P. aerugiuosa PAM1001 in Presence of Efflux Pump Inhibitor (EPI), Minimum Inhibitory Concentration (EPI Conc. 0 μg/mL) | Levofloxacin MIC Against P. aerugiuosa PAM1001 in Presence of Efflux Pump Inhibitor (EPI), Minimum Inhibitory Concentration (EPI Conc. 0.625 μg/mL) | Levofloxacin MIC Against P. aerugiuosa PAM1001 in Presence of Efflux Pump Inhibitor (EPI), Minimum Inhibitory Concentration (EPI Conc. 1.25 μg/mL) | Levofloxacin MIC Against P. aerugiuosa PAM1001 in Presence of Efflux Pump Inhibitor (EPI), Minimum Inhibitory Concentration (EPI Conc. 2.5 μg/mL) | Levofloxacin MIC Against P. aerugiuosa PAM1001 in Presence of Efflux Pump Inhibitor (EPI), Minimum Inhibitory Concentration (EPI Conc. 5 μg/ mL) | Levofloxacin MIC Against P. aerugiuosa PAM1001 in Presence of Efflux Pump Inhibitor (EPI), Minimum Inhibitory Concentration (EPI Conc. 10 μg/mL) | Levofloxacin MIC Against P. aerugiuosa PAM1001 in Presence of Efflux Pump Inhibitor (EPI), Minimum Inhibitory Concentration (EPI Conc. 20 μg/mL) | Levofloxacin MIC Against P. aerugiuosa PAM1001 in Presence of Efflux Pump Inhibitor (EPI), Minimum Inhibitory Concentration (EPI Conc. 40 μg/mL)
NCCC(=O)N[C@H]1CN[C@H](C(=O)N[C@H](CCc2ccccc2)C(=O)Nc2cnc3ccccc3c2)C1 [Compound M6, (2S,4R)-4-[3-(Aminopropionamido])-N-[(1R)-3-phenyl-1-(3-quinolylcarbamoyl)propyl]-2-pyrrolidinecarboxamide] | 4 µg/mL | 4 µg/mL | 4 µg/mL | 4 µg/mL | 4 µg/mL | 2 µg/mL | 0.06 µg/mL | 0.015 µg/mL
N[C@H]1CN[C@H](C(=O)N[C@H](CCc2ccccc2)C(=O)Nc2cnc3ccccc3c2)C1 [Compound M7] | 4 µg/mL | 4 µg/mL | 4 µg/mL | 4 µg/mL | 4 µg/mL | 4 µg/mL | 4 µg/mL | 0.06 µg/mL
CC(C)C[C@@H](NC(=O)[C@@H]1C[C@@H](NC(=O)CN)CN1)C(=O)Nc1cnc2ccccc2c1 [Compound M8] | 2 µg/mL | 2 µg/mL | 2 µg/mL | 2 µg/mL | 2 µg/mL | 2 µg/mL | 1 µg/mL | 0.25 µg/mL
CN(C(=O)CN)[C@@H]1CN[C@H](C(=O)N[C@H](CCc2ccccc2)C(=O)Nc2cnc3ccccc3c2)C1 [Compound M9] | 4 µg/mL | 4 µg/mL | 4 µg/mL | 4 µg/mL | 4 µg/mL | 4 µg/mL | 2 µg/mL | 0.06 µg/mL
COc1cc(C)c2ncc(NC(=O)[C@@H](CC(C)C)NC(=O)[C@@H]3C[C@@H](NC(=O)CN)CN3)cc2c1 [Compound M10, (2S,4R)-4-(2-Aminoacetamido)-N-[(1R)-3-3-methyl-1-(6-methoxy-8-methyl-3-quinolylcarbamoyl)butyl]-2-pyrrolidinecarboxamide] | 4 µg/mL | 4 µg/mL | 4 µg/mL | 4 µg/mL | 4 µg/mL | 4 µg/mL | 1 µg/mL | 0.06 µg/mL
CC(C)CC(NC(=O)C1CC(CN)CN1)C(=O)Nc1cnc2ccccc2c1 [Compound M13, (2R,4R)-4-(Aminomethyl)-N-[(1R)-3-methyl-1-quinolylcarbanioyl)bulyl]-2-pyrrolidinecarboxamide] | 4 µg/mL | 4 µg/mL | 4 µg/mL | 2 µg/mL | 1 µg/mL | 0.06 µg/mL | 0.06 µg/mL | 0.06 µg/mL
CCc1ccc2ncc(NC(=O)[C@@H](CCc3ccccc3)NC(=O)[C@H]3C[C@H](CN)CN3)cc2c1 [Compound M14, (2R,4R)-4-(Aminomethyl)-N-[(1R)-3-phenyl-1-(6-ethyl-3-quiolylcarbamoyl)propyl]-2-pyrrolidinecarboxamide] | 4 µg/mL | 4 µg/mL | 4 µg/mL | 2 µg/mL | 0.03 µg/mL | 0.03 µg/mL | 0.03 µg/mL | –
CN(C(=O)[C@@H]1C[C@@H](NC(=O)CN)CN1)[C@H](CCc1ccccc1)C(=O)Nc1cnc2ccccc2c1 [Compound M15, (2S,4R)-4-(2-Aminoacetamido)-N-methyl-N-[(1R)-3-phenyl-1-(3-quinolylcarbamoyl)propyl]-2-pyrrolidiecarboxamide] | 4 µg/mL | 4 µg/mL | 4 µg/mL | 4 µg/mL | 4 µg/mL | 1 µg/mL | 0.06 µg/mL | 0.015 µg/mL
